Experimental data: patent publication US9428499B2, “Heterocyclyl compounds as MEK inhibitors” (LUPIN LIMITED, priority 2012, dated 2016)

The compounds below were run on ERK phosphorylation (assay: Analysis of ERK phosphorylation (Alphascreen SureFire Phospho-ERK 1/2)). Settings: cells treated for 1 h; human melanoma cells, human and mouse colon cancer cells; read-out: Minimum concentration (nM) required for ≧80% inhibition of pERK.
Type: cell-based, human and mouse
Procedure: This assay was carried out with human melanoma cells, human and mouse colon cancer cells. Cells were treated for 1 h with various concentrations of test compounds. ERK phosphorylation analysis was performed using the Alphascreen SureFire Phospho-ERK 1/2 Kit (Perkin Elmer), by following the manufacturer's instructions. % inhibition of ERK phosphorylation was determined as: 100−{(RFU test−RFU lysis buffer control)/(RFU vehicle treated control−RFU lysis buffer control)}×100. Percentage inhibition at concentrations of 0.01 nM, 0.03 nM, 0.1-0.9 nM, 1 nM to 3 nM, 4-100 nM, and >100 nM, for the stated examples is setworth here. The percentage inhibition at the above depicted concentrations for the compounds stated are given in the following groups.

SMILES | IC80
Cc1c(=O)n(C)c(Nc2ccc(I)cc2F)c2c(=O)[nH]c(=O)n(-c3cccc(CCC(N)=O)c3)c12 [Compound 1, 3-(3-(5-((2-fluoro-4-iodophenyl)amino)-6,8-dimethyl-2,4,7-trioxo-3,4,6,7-tetrahydropyrido[4,3-d]pyrimidin-1(2H)-yl)phenyl)propanamide] | 1 to 3 nM
Cc1c(=O)n(C)c(Nc2ccc(I)cc2F)c2c(=O)[nH]c(=O)n(-c3cccc(C(=O)N4CCC4)c3)c12 [Compound 3, 1-(3-(azetidine-1-carbonyl)phenyl)-5-((2-fluoro-4-iodophenyl)amino)-6,8-dimethylpyrido[4,3-d]pyrimidine-2,4,7(1H,3H,6H)-trione] | 1 to 3 nM
Cc1c(=O)n(C)c(Nc2ccc(I)cc2F)c2c(=O)[nH]c(=O)n(-c3cccc(CC(=O)NC4CC4)c3)c12 [Compound 4, N-cyclopropyl-2-(3-(5-((2-fluoro-4-iodophenyl)amino)-6,8-dimethyl-2,4,7-trioxo-3,4,6,7-tetrahydropyrido[4,3-d]pyrimidin-1(2H)-yl)phenyl)acetamide] | 1 to 3 nM
Cc1c(=O)n(C)c(Nc2ccc(I)cc2F)c2c(=O)[nH]c(=O)n(-c3cccc(OCC(=O)NC4CC4)c3)c12 [Compound 6, N-cyclopropyl-2-(3-(5-((2-fluoro-4-iodophenyl)amino)-6,8-dimethyl-2,4,7-trioxo-3,4,6,7-tetrahydropyrido[4,3-d]pyrimidin-1(2H)-yl)phenoxy)acetamide] | 0.01 nM
Cc1c(=O)n(C)c(Nc2ccc(I)cc2F)c2c(=O)[nH]c(=O)n(-c3cccc(C(=O)N4CCOCC4)c3)c12 [Compound 7, 5-((2-fluoro-4-iodophenyl)amino)-6,8-dimethyl-1-(3-(morpholine-4-carbonyl)phenyl)pyrido[4,3-d]pyrimidine-2,4,7(1H,3H,6H)-trione] | 4 to 100 nM
Cc1c(=O)n(C)c(Nc2ccc(I)cc2F)c2c(=O)[nH]c(=O)n(-c3cccc(C(=O)N4CCS(=O)(=O)CC4)c3)c12 [Compound 8, 1-(3-(1,1-dioxidothiomorpholine-4-carbonyl)phenyl)-5-((2-fluoro-4-iodophenyl)amino)-6,8-dimethylpyrido[4,3-d]pyrimidine-2,4,7(1H,3H,6H)-trione] | 1 to 3 nM
Cc1c(=O)n(C)c(Nc2ccc(I)cc2F)c2c(=O)[nH]c(=O)n(-c3cccc(C(C)(C)C(N)=O)c3)c12 [Compound 9, 2-(3-(5-((2-fluoro-4-iodophenyl)amino)-6,8-dimethyl-2,4,7-trioxo-3,4,6,7-tetrahydropyrido[4,3-d]pyrimidin-1(2H)-yl)phenyl)-2-methylpropanamide] | 0.1 to 0.9 nM
Cc1c(=O)n(C)c(Nc2ccc(I)cc2F)c2c(=O)[nH]c(=O)n(-c3cccc(CC(=O)N(C)C)c3)c12 [Compound 10, 2-(3-(5-((2-fluoro-4-iodophenyl)amino)-6,8-dimethyl-2,4,7-trioxo-3,4,6,7-tetrahydropyrido[4,3-d]pyrimidin-1(2H)-yl)phenyl)-N,N-dimethylacetamide] | 0.1 to 0.9 nM
Cc1c(Nc2ccc(I)cc2F)c2c(=O)[nH]c(=O)n(-c3cccc(C(F)(F)C(N)=O)c3)c2n(C)c1=O [Compound 11, 2,2-difluoro-2-(3-(5-((2-fluoro-4-iodophenyl)amino)-6,8-dimethyl-2,4,7-trioxo-3,4,7,8-tetrahydropyrido[2,3-d]pyrimidin-1(2H)-yl)phenyl)acetamide] | 0.1 to 0.9 nM
Cc1c(=O)n(C)c(Nc2ccc(I)cc2F)c2c(=O)[nH]c(=O)n(-c3cccc(C(=O)NC4(C(N)=O)CC4)c3)c12 [Compound 12, N-(1-carbamoylcyclopropyl)-3-(5-((2-fluoro-4-iodophenyl)amino)-6,8-dimethyl-2,4,7-trioxo-3,4,6,7-tetrahydropyrido[4,3-d]pyrimidin-1(2H)-yl)benzamide] | 4 to 100 nM
Cc1c(=O)n(C)c(Nc2ccc(I)cc2F)c2c(=O)[nH]c(=O)n(-c3cccc(C(=O)NC4CCOCC4)c3)c12 [Compound 13, 3-(5-((2-fluoro-4-iodophenyl)amino)-6,8-dimethyl-2,4,7-trioxo-3,4,6,7-tetrahydropyrido[4,3-d]pyrimidin-1(2H)-yl)-N-(tetrahydro-2H-pyran-4-yl)benzamide] | 0.01 nM
Cc1c(=O)n(C)c(Nc2ccc(I)cc2F)c2c(=O)[nH]c(=O)n(-c3cccc(C(O)C(N)=O)c3)c12 (centres unmarked) [Compound 14, 2-(3-(5-((2-fluoro-4-iodophenyl)amino)-6,8-dimethyl-2,4,7-trioxo-3,4,6,7-tetrahydropyrido[4,3-d]pyrimidin-1(2H)-yl)phenyl)-2-hydroxyacetamide] | 4 to 100 nM
CNC(=O)CCc1cccc(-n2c(=O)[nH]c(=O)c3c(Nc4ccc(I)cc4F)n(C)c(=O)c(C)c32)c1 [Compound 15, 3-(3-(5-((2-fluoro-4-iodophenyl)amino)-6,8-dimethyl-2,4,7-trioxo-3,4,6,7-tetrahydropyrido[4,3-d]pyrimidin-1(2H)-yl)phenyl)-N-methylpropanamide] | 1 to 3 nM
Cc1c(=O)n(C)c(Nc2ccc(I)cc2F)c2c(=O)[nH]c(=O)n(-c3cccc(C(=O)N4CCS(=O)(=O)C4)c3)c12 [Compound 17, 1-(3-(1,1-dioxidothiazolidine-3-carbonyl)phenyl)-5-((2-fluoro-4-iodophenyl)amino)-6,8-dimethylpyrido[4,3-d]pyrimidine-2,4,7(1H,3H,6H)-trione] | 0.1 to 0.9 nM
Cc1c(=O)n(C)c(Nc2ccc(I)cc2F)c2c(=O)[nH]c(=O)n(-c3cccc(C(=O)N4CCC(O)CC4)c3)c12 [Compound 18, 5((2-fluoro-4-iodophenyl)amino)-1-(3-(4-hydroxypiperidine-1-carbonyl)phenyl)-6,8-dimethylpyrido[4,3-d]pyrimidine-2,4,7(1H,3H,6H)-trione] | 4 to 100 nM
Cc1c(=O)n(C)c(Nc2ccc(I)cc2F)c2c(=O)[nH]c(=O)n(-c3cccc(CCC(=O)NC4CC4)c3)c12 [Compound 19, N-cyclopropyl-3-(3-(5-((2-fluoro-4-iodophenyl)amino)-6,8-dimethyl-2,4,7-trioxo-3,4,6,7-tetrahydropyrido[4,3-d]pyrimidin-1(2H)-yl)phenyl)propanamide] | 4 to 100 nM
Cc1c(=O)n(C)c(Nc2ccc(I)cc2F)c2c(=O)[nH]c(=O)n(-c3cccc(OC(C)(C)C(N)=O)c3)c12 [Compound 20, 2-(3-(5-((2-fluoro-4-iodophenyl)amino)-6,8-dimethyl-2,4,7-trioxo-3,4,6,7-tetrahydropyrido[4,3-d]pyrimidin-1(2H)-yl)phenoxy)-2-methylpropanamide] | 1 to 3 nM
Cc1c(=O)n(C)c(Nc2ccc(I)cc2F)c2c(=O)[nH]c(=O)n(-c3cccc(C(=O)N4CCN(C)CC4)c3)c12 [Compound 21, 5-((2-fluoro-4-iodophenyl)amino)-6,8-dimethyl-1-(3-(4-methylpiperazine-1-carbonyl)phenyl)pyrido[4,3-d]pyrimidine-2,4,7(1H,3H,6H)-trione] | 0.1 to 0.9 nM
Cc1c(=O)n(C)c(Nc2ccc(I)cc2F)c2c(=O)[nH]c(=O)n(-c3cccc(C(=O)N4CCC(O)C4)c3)c12 (centres unmarked) [Compound 22, 5-((2-fluoro-4-iodophenyl)amino)-1-(3-(3-hydroxypyrrolidine-1-carbonyl)phenyl)-6,8-dimethylpyrido[4,3-d]pyrimidine-2,4,7(1H,3H,6H)-trione] | 4 to 100 nM
Cc1c(=O)n(C)c(Nc2ccc(I)cc2F)c2c(=O)[nH]c(=O)n(-c3cccc(C(=O)N4CCNCC4)c3)c12 [Compound 23, 5-((2-fluoro-4-iodophenyl)amino)-6,8-dimethyl-1-(3-(piperazine-1-carbonyl)phenyl)pyrido[4,3-d]pyrimidine-2,4,7(1H,3H,6H)-trione] | 4 to 100 nM
Cc1c(=O)n(C)c(Nc2ccc(I)cc2F)c2c(=O)n(C3CC3)c(=O)n(-c3cccc(C(=O)N4CCC4)c3)c12 [Compound 24, 1-(3-(azetidine-1-carbonyl)phenyl)-3-cyclopropyl-5-((2-fluoro-4-iodophenyl)amino)-6,8-dimethylpyrido[4,3-d]pyrimidine-2,4,7(1H,3H,6H)-trione] | 0.1 to 0.9 nM
Cc1c(=O)n(C)c(Nc2ccc(I)cc2F)c2c(=O)n(C3CC3)c(=O)n(-c3cccc(OCC(=O)NC4CC4)c3)c12 [Compound 25, N-cyclopropyl-2-(3-(3-cyclopropyl-5-((2-fluoro-4-iodophenyl)amino)-6,8-dimethyl-2,4,7-trioxo-3,4,6,7-tetrahydropyrido[4,3-d]pyrimidin-1(2H)-yl)phenoxy)acetamide] | 0.1 to 0.9 nM
Cc1c(=O)n(C)c(Nc2ccc(I)cc2F)c2c(=O)n(C3CC3)c(=O)n(-c3cccc(CC(N)=O)c3)c12 [Compound 26, 2-(3-(3-cyclopropyl-5-((2-fluoro-4-iodophenyl)amino)-6,8-dimethyl-2,4,7-trioxo-3,4,6,7-tetrahydropyrido[4,3-d]pyrimidin-1(2H)-yl)phenyl)acetamide] | 4 to 100 nM
Cc1c(=O)n(C)c(Nc2ccc(I)cc2F)c2c(=O)n(C3CC3)c(=O)n(-c3cccc(C(=O)N4CCCC4)c3)c12 [Compound 27, 3-cyclopropyl-5-((2-fluoro-4-iodophenyl)amino)-6,8-dimethyl-1-(3-(pyrrolidine-1-carbonyl)phenyl)pyrido[4,3-d]pyrimidine-2,4,7(1H,3H,6H)-trione] | 1 to 3 nM
Cc1c(=O)n(C)c(Nc2ccc(I)cc2F)c2c(=O)n(C3CC3)c(=O)n(-c3cccc(C(C)(C)C(N)=O)c3)c12 [Compound 28, 2-(3-(3-cyclopropyl-5-((2-fluoro-4-iodophenyl)amino)-6,8-dimethyl-2,4,7-trioxo-3,4,6,7-tetrahydropyrido[4,3-d]pyrimidin-1(2H)-yl)phenyl)-2-methylpropanamide] | 0.1 to 0.9 nM
Cc1c(Nc2ccc(I)cc2F)c2c(=O)n(C3CC3)c(=O)n(-c3cccc(C(F)(F)C(N)=O)c3)c2n(C)c1=O [Compound 30, 2-(3-(3-cyclopropyl-5-((2-fluoro-4-iodophenyl)amino)-6,8-dimethyl-2,4,7-trioxo-3,4,7,8-tetrahydropyrido[2,3-d]pyrimidin-1(2H)-yl)phenyl)-2,2-difluoroacetamide] | 1 to 3 nM
